Data taken from paper PMC11596062, “Substrate Specificity of ABCB Transporters Predicted by Docking Simulations Can Be Confirmed by Experimental Tests” (Molecules, 2024).

How the values were obtained:
OfABCB2 = test system: T1, OfABCB2; test: vanadate-sensitive ATPase assay, phosphate release, Sf9 membranes; format: biochemical, Oncopeltus fasciatus; details: substrate-stimulated ATPase; difference without / with 500 µM vanadate; 0-800 µM in 2% DMSO; 37 °C; read-out: Km Values [μM] ± SE / OfABCB2
T1 construct: full-length cds (3984 bp, 1327 aa), baculovirus pFBD in Sf9 cells, isolated cell membranes; no tag mentioned
From the text: vanadate-sensitive ATPase assay, phosphate release, Sf9 membranes on OfABCB2

OfABCB1 = details: read-out: Km Values [μM] ± SE / OfABCB1; substrate-stimulated ATPase; difference without / with 500 µM vanadate; 0-800 µM in 2% DMSO; 37 °C
From the text: vanadate-sensitive ATPase assay, phosphate release, Sf9 membranes on OfABCB1

C[C@@H]1O[C@@H](O[C@H]2C[C@@H](O)[C@]3(CO)[C@H]4[C@H](O)C[C@]5(C)[C@@H](C6=CC(=O)OC6)CC[C@]5(O)[C@@H]4CC[C@]3(O)C2)[C@H](O)[C@H](O)[C@H]1O [ouabain]
Km (OfABCB2): 7.05 ± 2.61 µM

C[C@H]1O[C@@H](O[C@H]2[C@@H](O)C[C@H](O[C@H]3[C@@H](O)C[C@H](O[C@H]4CC[C@@]5(C)[C@H](CC[C@@H]6[C@@H]5C[C@@H](O)[C@]5(C)[C@@H](C7=CC(=O)OC7)CC[C@]65O)C4)O[C@@H]3C)O[C@@H]2C)C[C@H](O)[C@@H]1O [digoxin]
Km (OfABCB1): 33.7 ± 11.4 µM
Km (OfABCB2): 9.33 ± 2.43 µM
